Counter-ions that a name gives are not always drawn.
Columns and labels:
[1] = biological target: T1, human Adenosine A2a receptor (Homo sapiens, UniProt P29274); test: Adenosine receptor TR-FRET binding assay (CA200645 displacement), A2a; settings: 100 nM CA200645, CHO cell membranes, 2 hours at room temperature
T1 construct: expressed in transfected cells; host or cells: CHO cell membranes

[2] = biological target: T2, human Adenosine A2b receptor (Homo sapiens, UniProt P29275); test: Adenosine receptor TR-FRET binding assay (CA200645 displacement), A2b; settings: 30 nM CA200645, CHO cell membranes, 2 hours at room temperature
T2 construct: expressed in transfected cells; host or cells: CHO cell membranes
T2 sequence (P29275 1-332): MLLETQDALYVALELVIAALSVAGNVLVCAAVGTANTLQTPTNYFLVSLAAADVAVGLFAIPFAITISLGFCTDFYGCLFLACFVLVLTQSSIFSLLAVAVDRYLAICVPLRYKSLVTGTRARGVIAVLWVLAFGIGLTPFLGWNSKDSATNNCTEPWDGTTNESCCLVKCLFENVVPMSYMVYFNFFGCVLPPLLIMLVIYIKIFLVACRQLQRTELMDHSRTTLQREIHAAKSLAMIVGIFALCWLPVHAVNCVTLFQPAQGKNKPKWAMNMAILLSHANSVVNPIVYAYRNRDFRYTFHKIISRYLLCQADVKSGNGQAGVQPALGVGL

[3] = test system: human PBMCs; test: CD3/CD28 stimulated IL-2 release NECA reversal assay in human PBMCs; format: cell-based; settings: PBMC, CD3/CD28 antibody stimulated, 1 uM NECA, 24 hours, IL-2 in culture supernatant;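 further: dose-response as % inhibition where 100% equals no-NECA control wells with CD3/CD28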
Description: Blood is drawn from healthy volunteers using sodium citrate as the anticoagulant (0.3% final concentration). After centrifugation of the blood over Histopaque-1077, PBMCs are collected from the Histopaque/plasma interface and washed twice in PBS (300 g for 10 mins at room temp). Cells are plated at 50,000 cells/well in 150 μl RPMI/10% FCS in 96-well cell culture plates that have been precoated with 1 ug/ml CD3 antibody. 50 μl diluted compound mix is added to the cells, to obtain final concentrations of 1 ug/ml CD28 antibody, 1 uM NECA and 0.003-10 μM adenosine receptor antagonist. Assay plates are incubated for 24 hours at 37° C. in a humidified incubator. Culture supernatant is tested for IL-2 levels using the human IL-2 Tissue Culture Kit (Meso Scale Discovery).

[4] = biological target: T3, human Adenosine A1 receptor (Homo sapiens, UniProt P30542); test: Adenosine receptor TR-FRET binding assay (CA200645 displacement), A1
T3 sequence (P30542 1-326): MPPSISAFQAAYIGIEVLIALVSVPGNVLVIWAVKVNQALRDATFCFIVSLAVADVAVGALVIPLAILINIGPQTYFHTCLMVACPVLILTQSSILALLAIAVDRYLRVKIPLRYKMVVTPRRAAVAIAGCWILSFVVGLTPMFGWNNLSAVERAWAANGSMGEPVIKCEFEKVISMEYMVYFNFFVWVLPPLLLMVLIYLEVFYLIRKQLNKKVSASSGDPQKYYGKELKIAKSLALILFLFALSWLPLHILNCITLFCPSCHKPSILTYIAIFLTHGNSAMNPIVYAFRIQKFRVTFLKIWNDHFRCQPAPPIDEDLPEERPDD

[5] = biological target: T4, human Adenosine A3 receptor (Homo sapiens, UniProt P0DMS8); test: Adenosine receptor TR-FRET binding assay (CA200645 displacement), A3
T4 sequence (P0DMS8 1-318): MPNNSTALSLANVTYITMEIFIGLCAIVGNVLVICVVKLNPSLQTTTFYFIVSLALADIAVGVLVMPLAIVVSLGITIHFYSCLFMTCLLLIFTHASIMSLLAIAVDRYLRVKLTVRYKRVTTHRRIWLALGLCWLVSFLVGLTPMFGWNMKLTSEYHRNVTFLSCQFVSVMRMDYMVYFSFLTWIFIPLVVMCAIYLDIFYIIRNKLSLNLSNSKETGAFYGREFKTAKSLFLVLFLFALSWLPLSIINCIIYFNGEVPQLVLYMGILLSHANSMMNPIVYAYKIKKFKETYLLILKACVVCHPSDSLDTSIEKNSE

T1 sequence (P29274 whole entry): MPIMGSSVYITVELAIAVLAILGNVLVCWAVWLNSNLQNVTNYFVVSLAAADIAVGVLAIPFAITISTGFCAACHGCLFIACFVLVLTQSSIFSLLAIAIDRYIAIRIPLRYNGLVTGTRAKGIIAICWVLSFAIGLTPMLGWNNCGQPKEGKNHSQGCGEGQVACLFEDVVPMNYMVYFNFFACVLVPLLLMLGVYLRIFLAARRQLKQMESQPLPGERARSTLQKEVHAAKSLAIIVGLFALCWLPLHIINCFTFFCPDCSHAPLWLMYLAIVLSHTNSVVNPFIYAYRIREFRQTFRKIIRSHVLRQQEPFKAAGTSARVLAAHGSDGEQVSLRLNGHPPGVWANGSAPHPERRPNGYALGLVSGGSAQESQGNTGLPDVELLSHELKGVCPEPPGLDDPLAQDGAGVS

Ki [1] [nM] | Ki [2] [nM] | Ki [4] [nM] | Ki [5] [nM] | Compound | IC50 [3] [nM]
30.9 | 116 | 0.3 | 92 | N#Cc1c(-c2cccc(F)c2)nn2ccc(N)nc12 [Example 72, 5-Amino-2-(3-fluorophenyl)pyrazolo[1,5-a]pyrimidine-3-carbonitrile] | 565
2.2 | 181 | 2 |  | N#Cc1c(-c2cccc(F)c2)nn2ccc(NCc3ccccc3)nc12 [Example 70, 5-(Benzylamino)-2-(3-fluorophenyl)pyrazolo[1,5-a]pyrimidine-3-carbonitrile] | 177
23.6 |  | 2280 | > 1000 | N#Cc1cccc(-c2nn3ccc(N4CCN(CCF)CC4)nc3c2C#N)c1 [Example 87, 2-(3-Cyanophenyl)-5-[4-(2-fluoroethyl)piperazin-1-yl]pyrazolo[1,5-a]pyrimidine-3-carbonitrile] | 57
3.4 | 2850 | 141 | 25 | Brc1c(-c2ccco2)nn2ccc(NCc3ccccc3)nc12 [Example 44, N-Benzyl-3-bromo-2-(2-furyl)pyrazolo[1,5-a]pyrimidin-5-amine] | 501
13.3 | 46 | 45 | 2090 | CC(C)(C)OC(=O)N1CCO[C@@H](CNc2ccn3nc(-c4ccco4)c(C#N)c3n2)C1 [Example 37.1] | 477
4.5 | 122 | 4 |  | N#Cc1c(-c2ccccc2F)nn2ccc(NCc3ccccc3)nc12 [Example 35, 5-(Benzylamino)-2-(2-fluorophenyl)pyrazolo[1,5-a]pyrimidine-3-carbonitrile] | 408
2 |  | 83 | > 1000 | N#Cc1cccc(-c2nn3ccc(NCc4ccccc4)nc3c2C#N)c1 [Example 58, 5-(Benzylamino)-2-(3-cyanophenyl)pyrazolo[1,5-a]pyrimidine-3-carbonitrile] | 118
1.7 | 55 | 200 | > 1000 | Cc1cc(-c2c(-c3cccc(C#N)c3)nn3ccc(C(=O)NC4COC4)nc23)cc(Cl)n1 [Example 5.5] | 21
16.6 | 1170 | 137 | 41 | c1ccc(CNc2ccn3nc(-c4ccco4)cc3n2)cc1 [Example 48, N-Benzyl-2-(2-furyl)pyrazolo[1,5-a]pyrimidin-5-amine] | 1890
24.1 | 2550 | 125 | 2120 | Cc1cccnc1CN1CCN(c2ccn3nc(-c4ccco4)c(C#N)c3n2)CC1 [Example 51, 2-(2-Furyl)-5-[4-[(3-methyl-2-pyridyl)methyl]piperazin-1-yl]pyrazolo[1,5-a]pyrimidine-3-carbonitrile] | 73
7.5 | 508 | 16 | 41 | Cc1ccc(-c2nn3ccc(NCc4ccccc4)nc3c2C#N)o1 [Example 64, 5-(benzylamino)-2-(5-methyl-2-furyl)pyrazolo[1,5-a]pyrimidine-3-carbonitrile] | 146
27.7 |  | 214 | 618 | Cn1cc(-c2c(-c3ccco3)nn3ccc(NCc4ccccc4)nc23)cn1 [Example 53, N-benzyl-2-(2-furyl)-3-(1-methylpyrazol-4-yl)pyrazolo[1,5-a]pyrimidin-5-amine] | 128
155 | 4460 | 988 | > 1000 | N#Cc1c(-c2ccco2)nn2ccc(NC[C@H]3CCCN3)nc12 [Example 80, 2-(2-furyl)-5-[[(2R)-pyrrolidin-2-yl]methylamino]pyrazolo[1,5-a]pyrimidine-3-carbonitrile hydrochloride] | 
31.5 | 49 | 130 | > 1000 | CCN1CCC(NC(=O)Nc2ccn3nc(-c4cccc(C#N)c4)c(-c4cc(C)nc(Cl)c4)c3n2)CC1 [Example 30.2, 1-[3-(2-Chloro-6-methyl-4-pyridyl)-2-(3-cyanophenyl)pyrazolo[1,5-a]pyrimidin-5-yl]-3-(1-ethyl-4-piperidyl)urea] | 
44.3 | 20 | 459 | > 1000 | Cc1cc(-c2c(-c3cccc(C#N)c3)nn3ccc(C(=O)N4CCNCC4)nc23)cc(Cl)n1 [Example 7.12, 3-[3-(2-Chloro-6-methyl-4-pyridyl)-5-(piperazine-1-carbonyl)pyrazolo[1,5-a]pyrimidin-2-yl]benzonitrile hydrochloride] | 
0.5 | 74 | 6 |  | N#Cc1c(-c2ccco2)nn2ccc(NCc3ccccc3)nc12 [Example 45, 5-(Benzylamino)-2-(2-furyl)pyrazolo[1,5-a]pyrimidine-3-carbonitrile] | 107
1 | 34 | 141 | > 1000 | Cc1cc(-c2c(-c3cccc(C#N)c3)nn3ccc(CCC(C)(C)O)nc23)cc(Cl)n1 [Example 22, 3-[3-(2-Chloro-6-methyl-4-pyridyl)-5-(3-hydroxy-3-methyl-butyl)pyrazolo[1,5-a]pyrimidin-2-yl]benzonitrile] | 
27.6 | 3 | 158 | > 1000 | Cc1cc(-c2c(-c3cccc(C#N)c3)nn3ccc(C(=O)N4CCC5(CC4)NC(=O)NC5=O)nc23)cc(C)n1 [Example 92.7] | 
76 | 5040 | 1760 | 2880 | C[C@@H]1CN(c2ccn3nc(-c4ccco4)c(C#N)c3n2)CCN1C(=O)OC(C)(C)C [Example 37.10, tert-butyl (2R)-4-[3-cyano-2-(2-furyl)pyrazolo[1,5-a]pyrimidin-5-yl]-2-methyl-piperazine-1-carboxylate] | 
8.4 | 28 | 262 | > 1000 | Cc1cc(-c2c(-c3cccc(C#N)c3)nn3ccc(NC(=O)N4CCC(C)(C#N)CC4)nc23)cc(C)n1 [Example 30.5, 4-Cyano-N-[2-(3-cyanophenyl)-3-(2,6-dimethyl-4-pyridyl)pyrazolo[1,5-a]pyrimidin-5-yl]-4-methyl-piperidine-1-carboxamide] | 
2.4 | 10 | 160 | > 1000 | Cc1cc(-c2c(-c3cccc(C#N)c3)nn3ccc(C(=O)NC4(C)CCNC4)nc23)cc(Cl)n1 (stereo not shown) [Example 7.8, 3-(2-Chloro-6-methyl-4-pyridyl)-2-(3-cyanophenyl)-N-(3-methylpyrrolidin-3-yl)pyrazolo[1,5-a]pyrimidine-5-carboxamide] | 
1.3 | 57 | 76 | > 1000 | Cc1cc(-c2c(-c3cccc(C#N)c3)nn3ccc(N4CCN(C)C(CO)C4)nc23)cc(Cl)n1 (stereo not shown) [Example 2.7] | 
1.1 | 12 | 5 | > 1000 | Cc1cc(-c2c(-c3cccc(C#N)c3)nn3ccc(N[C@@H](C)[C@H](O)CO)nc23)cc(Cl)n1 [Example 4.9, 3-[3-(2-Chloro-6-methyl-4-pyridyl)-5-[[(1S,2S)-2,3-dihydroxy-1-methyl-propyl]amino]pyrazolo[1,5-a]pyrimidin-2-yl]benzonitrile] | 
93.6 | 5500 | 1950 | 1770 | CC(C)(C)OC(=O)N1CC=C(c2ccn3nc(-c4ccco4)c(C#N)c3n2)CC1 [Example 40, tert-butyl 4-[3-cyano-2-(2-furyl)pyrazolo[1,5-a]pyrimidin-5-yl]-3,6-dihydro-2H-pyridine-1-carboxylate] | 
